Data published in US8735414B2 (priority 2009, dated 2014).

What was measured:
[1] = system: bicistronic HCV replicon (replicon RNA, GenBank Accession No. AJ242654); assay: HCV Replicon Assay; format: cell-based; conditions: Hepatitis C virus, 72 h, read-out: Replicon IC50

SMILES	melting point [°C]	IC50 [1] [nM]
COc1ccc2c(C#N)c(-c3ncc(S(=O)(=O)N[C@@H](C)C(F)(F)F)cn3)n(C3CCC3)c2c1 [compound 405, 2-(3-cyano-1-cyclobutyl-6-methoxy-1H-indol-2-yl)-N-[(2S)-1,1,1-trifluoropropan-2-yl]pyrimidine-5-sulfonamide]	254 to 255	< 500
CC(C)Oc1ccc2c(C#N)c(-c3ccc(NS(=O)(=O)C(C)C)cn3)n(CC3CC3)c2c1 [compound 281, N-{6-[3-cyano-1-(cyclopropylmethyl)-6-(propan-2-yloxy)-1H-indol-2-yl]pyridin-3-yl}propane-2-sulfonamide]	168 to 172	500 to 2000
CC(C)NS(=O)(=O)c1ccc(-c2c(C#N)c3ccc(OC(F)F)cc3n2C2CC2)cn1 [compound 39, 5-[3-cyano-1-cyclopropyl-6-(difluoromethoxy)-1H-indol-2-yl]-N-(propan-2-yl)pyridine-2-sulfonamide]	209 to 210	2000 to 5000
C[C@H](NS(=O)(=O)c1ccc(-c2c(C#N)c3cc(F)c(C4CC4)cc3n2-c2ncccn2)nc1)C(F)(F)F [compound 820, 6-[3-cyano-6-cyclopropyl-5-fluoro-1-(pyrimidin-2-yl)-1H-indol-2-yl]-N-[(2S)-1,1,1-trifluoropropan-2-yl]pyridine-3-sulfonamide]	236 to 240	< 500
Cc1ccc2c(C#N)c(-c3ccc(S(=O)(=O)NC(C)(C)C(F)(F)F)cn3)n(-c3ccccn3)c2c1 [compound 686, 6-[3-cyano-6-methyl-1-(pyridin-2-yl)-1H-indol-2-yl]-N-(1,1,1-trifluoro-2-methylpropan-2-yl)pyridine-3-sulfonamide]	208 to 209	< 500
CC(C)NS(=O)(=O)c1cnc(-c2c(C#N)c3ccc(C(F)F)cc3n2C2CCC2)nc1 [compound 332, 2-[3-cyano-1-cyclobutyl-6-(difluoromethyl)-1H-indol-2-yl]-N-(propan-2-yl)pyrimidine-5-sulfonamide]	221 to 227	< 500
CC(C)NS(=O)(=O)c1ccc(-c2c(C#N)c3ccc(C#N)cc3n2CC2CC2)nc1 [compound 348, 6-[3,6-dicyano-1-(cyclopropylmethyl)-1H-indol-2-yl]-N-(propan-2-yl)pyridine-3-sulfonamide]	190 to 192	500 to 2000
Cc1cc2c(cc1F)c(C#N)c(-c1ccc(S(=O)(=O)N[C@@H](C)C(F)(F)F)cn1)n2-c1ccncn1 [compound 896, 6-[3-cyano-5-fluoro-6-methyl-1-(pyrimidin-4-yl)-1H-indol-2-yl]-N-[(2S)-1,1,1-trifluoropropan-2-yl]pyridine-3-sulfonamide]	214 to 219	< 500
COc1cc2c(C#N)c(-c3ccc(S(=O)(=O)N[C@@H](C)C(F)(F)F)cn3)n(C3CCC3)c2cc1C [compound 757, 6-(3-cyano-1-cyclobutyl-5-methoxy-6-methyl-1H-indol-2-yl)-N-[(2S)-1,1,1-trifluoropropan-2-yl]pyridine-3-sulfonamide]	222 to 223	500 to 2000
N#Cc1c(-c2ccc(S(=O)(=O)NC(CF)CF)cn2)n(CC2CC2)c2cc(OC(F)(F)F)ccc12 [compound 68, 6-[3-cyano-1-(cyclopropylmethyl)-6-(trifluoromethoxy)-1H-indol-2-yl]-N-(1,3-difluoropropan-2-yl)pyridine-3-sulfonamide]	132 to 133	< 500
COc1ccc2c(c1)c(C#N)c(-c1ccc(S(=O)(=O)NC(CF)CF)cn1)n2C1CCCC1 [compound 571, 6-(3-cyano-1-cyclopentyl-5-methoxy-1H-indol-2-yl)-N-(1,3-difluoropropan-2-yl)pyridine-3-sulfonamide]	167 to 169	< 500
C[C@H](NS(=O)(=O)c1ccc(-c2c(C#N)c3cc(F)ccc3n2C2C=CCCC2)nc1)C(F)(F)F (stereo partly drawn) [compound 413, 6-[3-cyano-1-(cyclohex-2-en-1-yl)-5-fluoro-1H-indol-2-yl]-N-[(2S)-1,1,1-trifluoropropan-2-yl]pyridine-3-sulfonamide]	186 to 187	< 500
C[C@H](NS(=O)(=O)c1cnc(-c2c(C#N)c3ccc(F)cc3n2C2CCCCC2)nc1)C(F)(F)F [compound 411, 2-(3-cyano-1-cyclohexyl-6-fluoro-1H-indol-2-yl)-N-[(2S)-1,1,1-trifluoropropan-2-yl]pyrimidine-5-sulfonamide]	224 to 226	500 to 2000
CCc1cc2c(cc1F)c(C#N)c(-c1ccc(S(=O)(=O)N[C@@H](C)C(F)(F)F)cn1)n2-c1ccc(F)cn1 [compound 777, 6-[3-cyano-6-ethyl-5-fluoro-1-(5-fluoropyridin-2-yl)-1H-indol-2-yl]-N-[(2S)-1,1,1-trifluoropropan-2-yl]pyridine-3-sulfonamide]	210 to 212	< 500
C[C@H](NS(=O)(=O)c1cnc(-c2c(C#N)c3ccc(OC(F)F)cc3n2C2CCC2)nc1)C(F)(F)F [compound 323, 2-[3-cyano-1-cyclobutyl-6-(difluoromethoxy)-1H-indol-2-yl]-N-[(2S)-1,1,1-trifluoropropan-2-yl]pyrimidine-5-sulfonamide]	221 to 223	< 500
